Experimental data published in patent US20050239805A1, “Mixtures of fused pyrimidinones and dinitrophenolic compounds useful for controlling powdery mildews” (priority 2002, published 2005).

Key:
[1] = system: Erysiphe graminis f. sp. tritici; assay: Test A: preventive spray on wheat seedlings, wheat powdery mildew disease control; format: in vivo, Erysiphe graminis f. sp. tritici (wheat seedlings); settings: average of three replicates
Protocol: The formulation containing a compound of component (1) is dissolved in water to form a stock solution. For testing component (1) individually the stock solution is diluted to the final desired concentration to form a test solution. For example, the compositions of component (1) (e.g., Compound 1 of Index Table A), either alone or in combination, are sprayed at 0.08 or 0.4 ppm to the point of run-off on the test plants, equivalent to a rate of 0.2 or 1 g/ha, respectively.
The commercially available formulation of component (2) (e.g. the Karathane® 19.5% wettable powder formulation of dinocap) is suspended in water to form a stock suspension. For testing component (2) individually the stock suspension is diluted to the final desired concentration to form a test suspension. For example, dinocap, either alone or in combination, is sprayed at 10, 40 or 200 ppm to the point of run-off on the test plants, equivalent to a rate of 25, 100 or 500 g/ha, respectively.
For testing combinations, the stock suspensions of the individual active ingredients prepared as above are then combined in the appropriate ratio, and diluted to the final desired concentration to form a test suspension.
The resulting test suspensions are then used in the following tests. Test suspensions are sprayed to the point of run-off on the test plants at the rates of active ingredient described below. The tests were replicated three times and the results reported as the average of the three replicates.
The test suspension was sprayed to the point of run-off on wheat seedlings. The following day the seedlings were inoculated with a spore dust of Erysiphe graminis f. sp. tritici, (the causal agent of wheat powdery mildew) and incubated in a growth chamber at 20° C. for 8 days, after which disease ratings were made.
Results for Test A are given in Table A. In the table, a rating of 100 indicates 100% disease control and a rating of 0 indicates no disease control (relative to the controls). Columns labeled Observed Disease Control indicates the average of three replications. Columns labeled Expected Disease Control indicate the expected value for each treatment mixture using the Colby equation.

| Molecule | melting point | Observed Disease Control ([1]; application rate 0.08 ppm, inoculated day after spray, rated after 8 days at 20° C.) | Observed Disease Control ([1]; application rate 0.4 ppm, rated after 8 days) | Observed Disease Control ([1]; application rate 10 ppm, rated after 8 days) | Observed Disease Control ([1]; application rate 40 ppm, rated after 8 days) | Observed Disease Control ([1]; application rate 200 ppm, rated after 8 days) |
| --- | --- | --- | --- | --- | --- | --- |
| CCCOc1nc2ccc(I)cc2c(=O)n1CCC [Compound 1, 6-iodo-3-propyl-2-propyloxy-4(3H)-quinazolinone] | 48 to 49 °C | 80% | 99% | – | – | – |
| 2,6-dinitro-4-octylphenyl crotonates and 2,4-dinitro-6-octylphenyl crotonates [Dinocap] | – | – | – | 45% | 76% | 98% |
